# Reference: article PMC6768323, “Adverse Maternal, Fetal, and Postnatal Effects of Hexafluoropropylene Oxide Dimer Acid (GenX) from Oral Gestational Exposure in Sprague-Dawley Rats” (Environmental Health Perspectives, 2019)
# “And” between values parts separate entries of the source, which are not always exact repeats. Equal entries are not always repeated.
# How the values were obtained:
# [1] = system: pregnant Sprague-Dawley rats; assay: Dose-response analyses (EC5) versus maternal serum HFPO-DA concentration; type: in vivo
# Description: Dose–response analyses for the in vitro transactivation assay data and the most sensitive in vivo end points and were conducted using four-parameter logistic regression in GraphPad Prism (constraint to bottom=0% , top=100% ). In vitro luminescence data was normalized to background (vehicle control), log10 transformed, and converted to percentage maximum response based on saturating levels of reference agonist. In vivo data were modeled as a function of log10 -transformed internal dose (i.e., dam serum HFPO-DA concentration from GD18), and response data was normalized to control and presented as a percentage. We estimated effect concentrations equivalent to a 5% deviation from control ( EC5 ). Reduction in maternal serum T3 concentration was modeled by ascribing a concentration of one-half of the detection limit (i.e., 0.1 ng/mL; detection limit of 0.2 ng/mL ) for the dose groups that were below the detection limit.
# fetal testis = assay: Fetal testis custom gene array for phthalate-like effects; type: in vivo, Sprague-Dawley rats; conditions: 62.5-500 mg/kg/d
# Description: For the first two blocks, spanning the full dose range, late gestation (GD18) dams were euthanized by decapitation at ∼2h after the final oral dose [ ∼0830–1000 hours Eastern Standard Time (EST)]. Trunk blood was collected and serum isolated via centrifugation ( 10,000×g for 15 min at 4°C) in vacutainer tubes, transferred to 1.5-mL microcentrifuge tubes and stored at −80°C . Dam liver weight was recorded and a sample of liver tissue was collected into a polypropylene microcentrifuge tube containing 500μL TRIzol Reagent (Invitrogen) on ice. Fetuses were removed and two randomly selected fetuses per litter were weighed. […] Ex vivo fetal testis testosterone production was measured as previously reported ([Wilson et al. 2004b]) except the radioimmunoassay (RIA) utilized here was supplied by ALPCO (Catalog No. 72-TESTO-CT2, ALPCO). […]
# Gene expression in fetal testes and fetal/maternal livers was assessed using reverse transcriptase real-time PCR of cDNA synthesized from RNA extracted from sample homogenates. […] RNA concentration and purity (260:280 ratio ≥1.8 ) were determined with a NanoDrop 2000 spectrophotometer (Thermo Scientific). […] PCR reactions were run using RT2 SYBR Green quantitative PCR (qPCR) Master Mix (SABioscience) on an iCycler iQ Real-Time Detection System (Bio-Rad) for fetal testes and on a CFX96 Touch Real-Time Detection System (Bio-Rad) for maternal and fetal livers. […]
# [2] = system: pregnant Sprague-Dawley rats; assay: Maternal serum thyroid hormones and lipid panel; type: in vivo
# Description: Maternal serum samples from the first two blocks were analyzed for thyroid hormones and a standard lipid panel. Total triiodothyronine ( T3 ) and thyroxine ( T4 ) were quantified by radioimmunoassay (RIA) according to manufacturer specifications (IVD Technologies). […] Thyroid hormone RIA values were considered below detection when specific binding ( B/B0 ) was ≥90% ( 0.2 ng/mL for T3 and 2 ng/mL for T4 ) ([Sui and Gilbert 2003]). Serum total cholesterol, high-density lipoproteins (HDL), low-density lipoproteins (LDL), and triglycerides were quantified using a Beckman Coulter AU480 clinical chemistry analyzer (Beckman Coulter, Inc.) as per manufacturer’s protocol. All reagents were obtained from the instrument manufacturer except for the LDL assay, which was obtained from Diazyme Laboratories.
smiles,measurement,setting,value
"O=C(O)C(F)(OC(F)(F)C(F)(F)C(F)(F)F)C(F)(F)F (stereo not shown) [HFPO-DA, Hexafluoropropylene oxide dimer acid]","EC5, maternal serum T3","[1]; 5% deviation from control, maternal serum HFPO-DA",3.8 µg/mL
same,estimated maternal oral dose at T3 EC5,[1]; linear equation from Figure 5,8.2 mg/kg
same,"EC5, maternal liver Ehhadh expression",[1]; maternal serum HFPO-DA,14.1 µg/mL
same,"EC5, maternal liver weight",[1]; maternal serum HFPO-DA,17.6 µg/mL
same,"EC5, maternal serum T4",[1]; maternal serum HFPO-DA,17.8 µg/mL
same,fetal testis gene expression versus controls,fetal testis,not significantly different from controls
same,serum total T3 in the top two dose levels,[2]; 250 and 500 mg/kg/d,< 0.2 ng/mL
same,Dam serum HDL,"[2]; GD18, 1-500 mg/kg/d",36.3 ± 3.7 mg/dL and 36.0 ± 2.5 mg/dL and 33.0 ± 3.6 mg/dL and 37.0 ± 1.2 mg/dL and 36.7 ± 4.7 mg/dL and 28.7 ± 3.2 mg/dL and 19.3 ± 2.7 mg/dL
same,Dam serum LDL,"[2]; GD18, 1-500 mg/kg/d",14.7 ± 0.9 mg/dL and 14.0 ± 1.2 mg/dL and 12.7 ± 0.9 mg/dL and 12.3 ± 1.9 mg/dL and 13.3 ± 1.9 mg/dL and 19.0 ± 3.2 mg/dL and 14.7 ± 0.3 mg/dL and 14.0 ± 0.6 mg/dL
same,dose with lower maternal serum thyroid hormone and lipid profiles,[2]; oral GD14-18,≥ 30 mg/kg
same,dose with significantly lower serum total T3,"[2]; rat, in vivo",≥ 30 mg/kg
same,dose with significantly lower serum triglycerides,"[2]; rat, in vivo",500 mg/kg
same,dose with significantly lower total T4 and LDL,"[2]; rat, in vivo",≥ 125 mg/kg
